In patent US20230172204A1 (BASF SE, priority 2020, published 2023):

Assays:
[1] = tested on: Phakopsora pachyrhizi (F129L); test: Protective control of soybean rust on soybeans (PHAKPA P6); assay type: in vivo; conditions: for % PHAKPA (F129L) Disease level P6 at 4 ppm: protective P6, 4 ppm; for % PHAKPA (F129L) Disease level P6 at 4 ppm / % PHAKPA (F129L) Disease level P6 at 16 ppm: soybean rust F129L; for % PHAKPA (F129L) Disease level P6 at 16 ppm: protective P6, 16 ppm; for PHAKPA (F129L) Disease level (%) P6 at 4 ppm / PHAKPA (F129L) Disease level (%) P6 at 16 ppm: P6 protective, % diseased leaf area
[2] = tested on: Phakopsora pachyrhizi (F129L); test: Protective control of soybean rust on soybeans (PHAKPA P2); assay type: in vivo; conditions: for % PHAKPA (F129L) Disease level P2 at 4 ppm: protective P2, 4 ppm; for % PHAKPA (F129L) Disease level P2 at 4 ppm / % PHAKPA (F129L) Disease level P2 at 16 ppm: soybean rust F129L; for % PHAKPA (F129L) Disease level P2 at 16 ppm: protective P2, 16 ppm; for PHAKPA (F129L) Disease level (%) P2 at 4 ppm / PHAKPA (F129L) Disease level (%) P2 at 16 ppm: P2 protective, % diseased leaf area

SMILES | % PHAKPA (F129L) Disease level P6 at 4 ppm [1] | % PHAKPA (F129L) Disease level P6 at 16 ppm [1] | % PHAKPA (F129L) Disease level P2 at 4 ppm [2] | % PHAKPA (F129L) Disease level P2 at 16 ppm [2] | PHAKPA (F129L) Disease level (%) P6 at 4 ppm [1] | PHAKPA (F129L) Disease level (%) P2 at 4 ppm [2] | PHAKPA (F129L) Disease level (%) P6 at 16 ppm [1] | PHAKPA (F129L) Disease level (%) P2 at 16 ppm [2]
CNC(=O)/C(=N/OC)c1cccc(C)c1CO/N=C(\CC(F)(F)F)c1cc(Cl)cc(Cl)c1 [compound 255] | 100% | 87% | 97% | 83% | – | – | – | –
CO/N=C(/C(=O)OC)c1cccc(C)c1CO/N=C(\C)c1ccc(Cl)c(Cl)c1C(F)(F)F [compound 429] | 67% | 43% | 83% | 50% | – | – | – | –
CNC(=O)/C(=N/OC)c1cccc(C)c1CO/N=C(\C)c1cc(F)c(F)cc1C(F)(F)F [compound 410] | 35% | 1% | 9% | 0% | – | – | – | –
CO/N=C(/C(=O)OC)c1cccc(C)c1CO/N=C(\C)c1cc(Cl)ccc1Cl [compound 117] | 88% | 12% | 85% | 10% | – | – | – | –
CO/N=C(/C(=O)OC)c1cccc(C)c1CO/N=C(\C)c1cccc(F)c1C(F)(F)F [compound 330] | 93% | 17% | 83% | 24% | – | – | – | –
CO/N=C(/C(=O)OC)c1cccc(C2CC2)c1CO/N=C(\C)c1cccc(C(F)(F)F)c1 [Ex. 10] | 45% | 3% | 22% | 2% | – | – | – | –
CNC(=O)/C(=N/OC)c1cccc(C)c1CO/N=C(\C)c1ccccc1C [compound 127] | 93% | 62% | 90% | 44% | – | – | – | –
C#Cc1cccc(/C(C)=N/OCc2c(C)cccc2/C(=N\OC)C(=O)OC)c1 [compound 53] | 100% | 47% | 63% | 17% | – | – | – | –
CNC(=O)/C(=N/OC)c1cccc(C)c1CO/N=C(\C)c1ccc(Br)cc1C(F)(F)F [compound 258] | 73% | 8% | 32% | 7% | – | – | – | –
CO/N=C(/C(=O)OC)c1cccc(C)c1CO/N=C(\C)c1cccc(C(C)(C)C)c1 [compound 96] | 3% | 0% | 6% | 1% | – | – | – | –
CNC(=O)/C(=N/OC)c1cccc(C)c1CO/N=C(\C)c1cc(Cl)ccc1Cl [Ex. 130] | 40% | 1% | 20% | 1% | 67% | 33% | – | –
CNC(=O)/C(=N/OC)c1cccc(C)c1CO/N=C(\C)c1c(F)ccc(C(F)(F)F)c1F [compound 162] | 1% | 0% | 0% | 0% | – | – | – | –
CNC(=O)/C(=N/OC)c1cccc(C)c1CO/N=C(\C)c1cccc(OC(F)F)c1 [compound 81] | 2% | 0% | 6% | 0% | – | – | – | –
CO/N=C(/C(=O)OC)c1cccc(C)c1CO/N=C(\C)c1cccc(C2CC2(Cl)Cl)c1 (stereo not drawn) [compound 74] | 16% | 3% | 27% | 6% | – | – | – | –
CO/N=C(/C(=O)OC)c1cccc(C)c1CO/N=C(\C)c1ccc(Cl)c(C)c1 [compound 102] | 90% | 43% | 60% | 11% | – | – | – | –
CO/N=C(/C(=O)OC)c1cccc(C)c1CO/N=C(\C)c1cc(Br)cc(F)c1F [compound 240] | 73% | 3% | 70% | 8% | – | – | – | –
CO/C=C(/C(=O)OC)c1ccccc1CO/N=C(\C)c1cccc(C(F)(F)F)c1 [reference compound] | – | – | – | – | 30% | 6% | – | –
CNC(=O)/C(=N/OC)c1cccc(C)c1CO/N=C(\C)c1cccc(Br)c1 [Ex. 58] | 4% | 0% | 2% | 0% | 4% | 0% | – | –
CO/N=C(\C)COc1cccc(/C(C)=N/OCc2c(C)cccc2/C(=N\OC)C(=O)OC)c1 [compound 227] | 100% | 57% | 100% | 47% | – | – | – | –
CO/N=C(/C(=O)OC)c1cccc(CF)c1CO/N=C(\C)c1cccc(C(F)(F)F)c1 [compound 25] | 50% | 2% | 16% | 3% | – | – | – | –
CNC(=O)/C(=N/OC)c1cccc(C)c1CO/N=C(\C)c1ccccc1Br [Ex. 120] | 90% | 8% | 43% | 4% | – | – | 15% | 6%
CNC(=O)/C(=N/OC)c1cccc(C)c1CO/N=C(\C)c1cccc(OC/C(C)=N/OC)c1 [compound 226] | 57% | 7% | 28% | 3% | – | – | – | –
CCc1ccccc1/C(C)=N/OCc1c(C)cccc1/C(=N\OC)C(=O)OC [compound 175] | 100% | 93% | 100% | 97% | – | – | – | –
CO/N=C(/C(=O)OC)c1cccc(C)c1CO/N=C(\C)c1cc(Cl)c(F)c(Cl)c1 [compound 246] | 77% | 7% | 40% | 15% | – | – | – | –
CO/N=C(/C(=O)OC)c1ccccc1CO/N=C(\C)c1ccccc1F [reference compound] | – | – | – | – | – | – | 77% | 83%
COC=C(C(=O)OC)c1cccc(C)c1CON=C(C)c1ccccc1C(F)(F)F [Ex. 244] | 15% | 2% | 14% | 0% | – | – | 2% | 0%
CNC(=O)/C(=N/OC)c1ccccc1CO/N=C(\C)c1ccc(Cl)cc1 [reference compound] | – | – | – | – | 80% | 40% | – | –
CO/N=C(/C(=O)OC)c1cccc(C)c1CO/N=C(\C)c1ccc(-c2ccccc2)cc1 [compound 111] | 46% | 10% | 28% | 8% | – | – | – | –
CO/C=C(/C(=O)OC)c1ccccc1CO/N=C(\C)c1ccccc1C(F)(F)F [reference compound] | – | – | – | – | – | – | 9% | 11%
CO/N=C(/C(=O)OC)c1cccc(C)c1CO/N=C(\C)c1ccccc1-c1ccccc1 [compound 121] | 98% | 92% | 100% | 98% | – | – | – | –
